Assay results published in BindingDB's records for doi:10.1124/jpet.105.083436 (Louisiana State University, 2005).

Biological target: Nociceptin receptor (Homo sapiens, UniProt P41146)
Sequence (P41146 whole entry): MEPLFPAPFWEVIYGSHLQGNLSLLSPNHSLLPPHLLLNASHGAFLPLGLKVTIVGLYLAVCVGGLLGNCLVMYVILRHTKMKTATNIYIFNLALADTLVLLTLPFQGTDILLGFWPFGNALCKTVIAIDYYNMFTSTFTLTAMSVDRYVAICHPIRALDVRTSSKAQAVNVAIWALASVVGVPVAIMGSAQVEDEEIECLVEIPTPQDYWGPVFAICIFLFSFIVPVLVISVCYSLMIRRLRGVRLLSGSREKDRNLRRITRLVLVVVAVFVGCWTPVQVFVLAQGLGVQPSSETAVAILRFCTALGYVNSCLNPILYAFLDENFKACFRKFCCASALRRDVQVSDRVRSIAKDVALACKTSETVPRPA

Ac-RYYRWKKKKKKK-NH2
Ki: 0.5 nM
